The values below are quoted from earlier work in US20220313608A1, “TREATMENT OF BREAST CANCER” (SynCore Biotechnology Co., Ltd., priority 2015, published 2022).

SMILES strings stand for the structures.

The subject of the data set is metastatic breast cancer patients. The settings on record: first-line, gemcitabine 1250 mg/m^2 days 1 and 8, paclitaxel 175 mg/m^2 triweekly.

Take `CC(=O)O[C@H]1C(=O)[C@@]2(C)[C@H]([C@H](OC(=O)c3ccccc3)[C@]3(O)C[C@H](OC(=O)[C@H](O)[C@@H](NC(=O)c4ccccc4)c4ccccc4)C(C)=C1C3(C)C)[C@]1(OC(C)=O)CO[C@@H]1C[C@@H]2O` [paclitaxel]: the “frequency of alteration of hepatic function” value is 2%.
